Literature values, collected in patent publication US20090263514A1, “Cold and flu tonic” (priority 2008, published 2009).

Details: in humans

In the case of `O=C(/C=C/C=C/c1ccc2c(c1)OCO2)N1CCCCC1` [piperine], the bioavailability of curcumin is listed as “enhance bioavailability of curcumin dramatically”.
